How the values were obtained:
[1] = molecular target: wt FRB (K2095 T2098 W2101) (Homo sapiens, UniProt P42345+P62942); details: cited from earlier work
[2] = molecular target: FRB-PLF (Homo sapiens, UniProt P42345+P62942, K2095P/T2098L/W2101F); details: cited from earlier work
[3] = tested on: cells; test: AP1903 amount needed in vitro for effective signaling of cells; format: cell-based
Protocol: This equates to 16-160 μg/L or […] (1.6-160 μg/kg).

[4] = tested on: human CD3+CD19+ T cells; test: AP1903 dose-dependent elimination in vivo of iCasp9-transduced T cells; set-up: species or system immune deficient mice (NSG); details: mouse
Protocol: The Caspase-9 polypeptide has a dose-response curve in vivo, which could be used to eliminate a variable fraction of T cells expressing the Caspase-9 polypeptide.
T cells were transduced with SFG-iCasp9-D330E-2A-ΔCD19 retrovirus and injected i.v. into immune deficient mice (NSG). […] After an additional 24 hours, mice were sacrificed and lymphocytes from the spleen (A) were isolated and analyzed by flow cytometry for the frequency of human CD3^+CD19^+ T cells.

[5] = tested on: 293 cells; test: SEAP assay: FRB-tagged CAR plus iCaspase-9 in 293 cells; format: cell-based; details: iCaspase-9
Text: FIGS. 6A and 6B provide the results of an assay of two-tiered activation of apoptosis.
As a proof of principal, two tandem FRB, domains were fused to either a 1st generation Her2-CAR or to a 1st generation CD19-CAR co-expressing inducible Caspase-9. 293 cells were transiently transfected with a constitutive reporter plasmid, SRα-SEAP, along with normalized levels of expression plasmids encoding Her2-CAR-FRB2, iCaspase-9, Her2-CAR-FRBl2+iCasp9, iC9-CAR(19).FRBl2 (coexpressing both CD19-CAR-FRBl2 and iCaspase9), or control vector. […] After overnight incubation with drugs, SEAP activity was determined. […] This dose-dependent decrease required the presence of both the FRB-tagged CAR and the FKBP-tagged Caspase-9. […] Moreover, on- or off-target-mediated CAR clustering should increase the sensitivity of killing primarily at the site of scFv engagement.

[6] = cited from earlier work
[7] = tested on: CD3+ΔCD19+ (iCasp9+) T cells; test: CASPALLO phase 1 clinical trial: AP1903 in patients with GvHD after iCasp9+ T cells; details: human, in vivo
[8] = molecular target: FRB-KTF (Homo sapiens, UniProt P42345+P62942, W2101F); details: cited from earlier work
FRB-KTF, sequence (P42345 2012-2144 W2101F limits assumed): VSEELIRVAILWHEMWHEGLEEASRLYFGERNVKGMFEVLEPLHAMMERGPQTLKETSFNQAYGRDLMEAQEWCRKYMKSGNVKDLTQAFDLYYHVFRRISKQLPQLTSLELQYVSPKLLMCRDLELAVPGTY
FRB-KTF, sequence (P62942 2-108 limits assumed): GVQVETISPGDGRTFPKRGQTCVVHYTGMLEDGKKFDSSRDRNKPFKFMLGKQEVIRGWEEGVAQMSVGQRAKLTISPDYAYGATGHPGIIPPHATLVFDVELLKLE

[9] = molecular target: FRBL (Homo sapiens, UniProt P42345+P62942, T2098L); test: Rapalog binding to mutant FRB (FRBL/KLW) versus wild-type FRB
FRBL, sequence (P42345 2012-2144 T2098L limits assumed): as the sequence (P42345 2012-2144 W2101F limits assumed) above, with T87L, F90W counted along it
FRBL, sequence (P62942 2-108 limits assumed): as the sequence (P62942 2-108 limits assumed) above

[10] = tested on: NF-κB; test: NF-κB SeAP reporter assay of inducible MyD88/CD40 activity; format: cell-based
Protocol: 293T cells were transfected with 1 μg of reporter construct NF-κB SeAP and 4 μg of the iMC+CARζ construct pBP0774 or the MC-rap-CAR construct pBP1440 using the GeneJuice protocol (Novagen). […] After 24 hours of further incubation SeAP activity was determined from cell supernatants.
HEK 293T cells (1.5×10^5) were seeded on a 100-mm tissue culture dish in 10 mL DMEM4500, supplemented with glutamine, penicillin/streptomycin and 10% fetal calf serum. After 16-30 hours incubation, cells were transfected using Novagen's GeneJuice® protocol. Briefly, for each transfection, 0.5 mL OptiMEM was pipetted into a 1.5-mL microcentrifuge tube and 15 μL GeneJuice reagent added followed by 5 sec. vortexing. Samples were rested 5 minutes to settle the GeneJuice suspension. DNA (5 μg total) was added to each tube and mixed by pipetting up and down four times. Samples were allowed to rest for 5 minutes for GeneJuice-DNA complex formation and the suspension added dropwise to one dish of 293T cells. A typical transfection contains 1 μg NFkB-SEAP (5), 4 μg iMC+CARζ(pBP0774) or 4 μg MC-Rap-CAR (pBP1440) (1).
24 hours following transfection (4.1), 293T cells were split to 96-well plates and incubated with dilutions of dimerizing drugs. Briefly, 100 μL media was added to each well of a 96-well flat-bottom plate. Drugs were diluted in tubes to a concentration 4× the top concentration in the gradient to be place on the plate. […] 100 μL from each drug-containing well was then transferred to the adjacent well and the cycle repeated 10 times to produce a serial two-fold step gradient. The last wells were untreated and serve as a control for basal reporter activity. Transfected 293 cells were then trypsinized, washed with complete media, suspended in media and 100 μL aliquoted to each well containing drug (or no drug). Cells were incubated 24 hours.
24 hours after drug stimulation, 96-well plates were wrapped to prevent evaporation and incubated at 65° C. for 2 hours to inactivate endogenous and serum phosphatases while the heat-stable SeAP reporter remains (3, 12, 14). 100 μL samples from each well were loaded into individual wells of a 96-well assay plate with black sides. Samples were incubated with 0.5 mM 4-methylumbelliferyl phosphate (4-MUP) in 0.5 M diethanolamine at pH 10.0 for 4 to 16 hours. Phosphatase activity was measured by fluorescence with excitation at 355 nm and emission at 460 nm. Data was transferred to a Microsoft Excel spreadsheet for tabulation and graphed with GraphPad Prism.

[11] = tested on: transduced T cells (human PBMCs); test: IL-6 ELISA as indicator of MC activity in transduced T cells; format: cell-based; details: pBP1440, 24 hours
[12] = tested on: transduced T cells; test: T cell caspase assay (IncuCyte, caspase 3/7 green reagent); format: cell-based, human; details: over 100 fold above the level used to activate MC-rap
Protocol: To enable detection of apoptosis using the IncuCyte instrument, 2 μM of IncuCyte™ Kinetic Caspase-3/7 Apoptosis reagent (Essen Bioscience, 4440) were add to each well to reach a total volume of 200 μl. The plates were centrifuged for 5 min at 400×g and placed inside the IncuCyte (Dual Color Model 4459) to monitor green fluorescence every 2-3 hours for a total of 48 hours at 10× objective. Image analysis was performed using the “Tcells_caspreagent_phase_green_10×_MLD” processing definition. The “Total Green Object Integrated Intensity” metric is used to quantify caspase activation. Each condition was performed in duplicates and each well was imaged at 4 different locations.
To enable detection of apoptosis using the IncuCyte instrument, 2 μM of IncuCyte™ Kinetic Caspase-3/7 Apoptosis reagent (Essen Bioscience, 4440) was added to each well to reach a total volume of 200 μl. The plates were centrifuged for 5 min at 400×g and placed inside the IncuCyte (Dual Color Model 4459) to monitor green fluorescence every 2-3 hours for a total of 48 hours at 10× objective. Image analysis was performed using the “Tcells_caspreagent_phase_green_10×_MLD” processing definition. The “Total Green Object Integrated Intensity” metric and the “Phase Object Confluence (Percent)” were used to quantify caspase activation. Each condition was performed in duplicate and each well was imaged at 4 different locations.

[13] = tested on: HPAC PSCA+ tumor cells; test: T cell anti-tumor assay with HPAC-RFP cells (IncuCyte, ELISA); format: cell-based, human; details: 2 nM, E:T 1:30
Protocol: PBMCs from donor 920 were activated and co-transduced with GFP-Ffluc and iMC+CARζ-T (189), i9+CARζ+MC (873), or FwtFRBC9/MC.FvFv (1308)-encoding vectors. […] (A & B) Two days post-seeding, culture supernatants were analyzed for IL-2, IL-6, and IFN-γ production by ELISA. […] Numbers of HPAC-RFP and T cell-GFP at the E:T 1:2 ratio was analyzed using the basic analyzer software for the IncuCyte at day 7 (Ci) and day 8 with 0 nM suicide drug (Cii) and 10 nM suicide drug (Ciii). Similar analysis was also performed at the 1:5 E:T ratio (D). (Note: the y-axis in Ci and Di are at log-scale).
The HPAC PSCA^+ tumor cells were stably labeled with nuclear-localized RFP protein using the NucLight™ Red Lentivirus Reagent (Essen Bioscience, 4625). To set up the coculture, 4000 HPAC-RFP cells were seeded per well of 96-well plates in 100 μl of CTL medium without IL-2 for at least 4 hours to allow tumor cells to adhere. After transduction with the appropriate retrovirus and allowed to rest for at least 7 days in culture, T were seeded according to various E:T ratios to the HPAC-RFP-containing 96-well plates. […] Each plate was set up in duplicates, one plate to monitor with the IncuCyte cell imaging system and one plate for supernatant collection for ELISA assay on day 2. The plates were centrifuged for 5 min at 400×g and placed inside the IncuCyte (Essen Bioscience, Dual Color Model 4459) to monitor red fluorescence (and green fluorescence if T cells were labeled with GFP-Ffluc) every 2-3 hours for a total of 7 days at 10× objective. Image analysis was performed using the “HPAC-RFP_TcellsGFP_10×_MLD” processing definition. On day 7, HPAC-RFP cells were analyzed using the “Red Object Count (1/well)” metric. […] On day 8, Tcell-GFP cells were analyzed using the “Total Green Object Integrated Intensity” metric. Each condition was performed at least in duplicates and each well was imaged at 4 different locations.

[14] = tested on: Raji-GFP cells; test: Raji-GFP coculture with CD19 CAR-T cells (flow cytometry); format: cell-based, human; details: 2 nM, E:T 1:5, seven days
Protocol: After seven days of incubation the live cells were analyzed for the proportion of GFP labeled tumor cells (left) and for the proportion of total T cells (CD3^+, right) and transduced CAR-T cells (CD34, not shown).
Raji cells (ATCC) labeled by stable expression of Green Fluorescent Protein (Raji-GFP) are a Burkitt's lymphoma cell line that express CD19 on the cell surface and are a target for an anti-CD19 CAR. 50000 Raji-GFP cells were seeded on a 24 well plate with 10000 CAR-T cells, a 1:5 E:T ratio. Media supernatant was taken at 48 hours for determination of cytokine release by activated CAR-T cells. The degree of tumor killing was determined at 7 days and 14 days by flow cytometry (Galeos, Beckman-Coulter) by the proportion of GFP labeled tumor cells and CD3 labeled T cells.

wt FRB (K2095 T2098 W2101), sequence (P42345 2012-2144 limits assumed): as the sequence (P42345 2012-2144 W2101F limits assumed) above, with F90W counted along it
wt FRB (K2095 T2098 W2101), sequence (P62942 2-108 limits assumed): as the sequence (P62942 2-108 limits assumed) above
FRB-PLF, sequence (P42345 2012-2144 K2095P/T2098L/W2101F): as the sequence (P42345 2012-2144 W2101F limits assumed) above, with K84P, T87L counted along it
FRB-PLF, sequence (P62942 2-108): as the sequence (P62942 2-108 limits assumed) above

CO[C@@H]1C[C@H](C[C@@H](C)[C@@H]2CC(=O)[C@H](C)/C=C(\C)[C@@H](O)[C@@H](OC)C(=O)[C@H](C)C[C@H](C)/C=C/C=C/C=C(\C)[C@H](OC(C)C)C[C@@H]3CC[C@@H](C)[C@@](O)(O3)C(=O)C(=O)N3CCCC[C@H]3C(=O)O2)CC[C@H]1O [R-Isopropoxyrapamycin]
EC50 [1]: ~300 nM
EC50 [2]: ~8.5 nM

CC[C@H](C(=O)N1CCCC[C@H]1C(=O)O[C@H](CCc1ccc(OC)c(OC)c1)c1cccc(OCC(=O)NCCNC(=O)COc2cccc([C@@H](CCc3ccc(OC)c(OC)c3)OC(=O)[C@@H]3CCCCN3C(=O)[C@@H](CC)c3cc(OC)c(OC)c(OC)c3)c2)c1)c1cc(OC)c(OC)c(OC)c1 (relative stereo) [AP1903, 2-Piperidinecarboxylic acid, 1-[(2S)-1-oxo-2-(3,4,5-trimethoxyphenyl)butyl]-, 1,2-ethanediylbis[imino(2-oxo-2,1-ethanediyl)oxy-3,1-phenylene[(1R)-3-(3,4-dimethoxyphenyl)propylidene]] ester, [2S-[1(R*),2R*[S*[S*[1(R*),2R*]]]]]-(9C1)]
amount needed in vitro for effective signaling of cells [3]: 10 to 100 nM
dose sufficient to eliminate most modified T cells in vivo [4]: 0.5 mg/kg
SEAP activity, % of normal levels [5]: about 20%
safety and tolerability in healthy volunteers ([6]; 0.01-1.0 mg/kg, listed as API 903): No significant adverse effects
adverse event considered possibly related to AP1903 ([6]; 1 volunteer at 1.0 mg/kg): vasodilatation
plasma level, % of maximal concentration at 2 hours post-dose ([6]; IV infusion over 2 hours): ~7%
plasma level, % of maximal concentration at 10 hours post-dose ([6]; IV infusion over 2 hours): ~1%
serious adverse events ([6]; Phase 1 study in volunteers): No serious adverse events
well-tolerated doses ([6]; Phase 1 study): up to 1 mg/kg
further reduction of CD3+ΔCD19+ cells within 24 hours [7]: further log reduction
time to resolution of skin and liver aGvHD [7]: ≤ 24 h

S-Butanesulfonamidorap [S-Butanesulfonamidorap (AP23050)]
EC50 [1]: ~2.7 nM
EC50 [8]: > 200 nM

C7-isobutyloxyrapamycin
affinity for mutant FRB domain KLW [9]: subnanomolar affinity
binds FRBL at concentrations lower than wild-type FRB in mTOR [9]: 20 fold
EC50 / concentration stimulating NF-κB reporter activity via MC-Rap ([10]; MC-rap-CAR construct pBP1440): subnanomolar
EC50 ([10]; iRMC (KLW, wild-type FKBP12, MyD88, CD40), read-out: EC50, NF-κB activity via iRMC): < 1 nM
MC activity (secreted IL-6) in MC-rap-T cells [11]: strongly responsive
activation of apoptosis at high concentrations [12]: insufficient to activate apoptosis
tumor cell control by MC-rap containing CAR-T cells [13]: able to control tumor cells as effectively as rimiducid stimulated iMC
CAR-T cells with FwtFRBC9/MC.FvFv [14]: cause cell death

— US20230065562A1, “DUAL CONTROLS FOR THERAPEUTIC CELL ACTIVATION OR ELIMINATION” (Bellicum Pharmaceuticals, Inc., priority 2015, published 2023)
